According to a melting point compilation (Tetko et al.; mined from patent text by program, amines drawn as free bases though some values may be those of a salt):

| SMILES | melting point [°C] |
| --- | --- |
| CC1=C(C(=C2SCSCS2)c2ccc(C)cc2)CN(C)O1 | 89 to 90 |
| C#Cc1cc(Nc2ncnc3cnc(F)cc23)ccc1F | 223 to 226 |
| O=C(CC(F)(F)F)NCC(=O)n1ccc2cc(/C=C/C(c3cc(Cl)c(F)c(Cl)c3)C(F)(F)F)ccc21 (stereo not given) | 121 to 126 |
| CC(O)COc1cccc([N+](=O)[O-])c1C#N (stereo not given) | 121 to 124 |
| Cn1c(=O)c2c(ncn2CCCN2CC=C(c3c[nH]c4ccccc34)CC2)n(C)c1=O | 243 |
| COC(=O)c1cn2c(NCCCCCCNS(=O)(=O)c3ccccc3[N+](=O)[O-])nsc2n1 | 148 to 149 |
| Cc1cc(CCCOc2c(C)cc(C(=N)NO)cc2C)on1 | 129 to 130 |
| CCN(CC)CCOCCc1ccc2sc(C(N)=O)cc2c1 | 82 to 84 |
| COC(=O)[C@@H]1Cc2ccccc2N1C(=O)[C@H](CC(=O)O)NC(=O)C(F)(F)F | 157 to 158 |
| CC#CCOc1ccc(S(=O)(=O)CNCC(C(=O)NO)N2CCN(S(C)(=O)=O)CC2)cc1 (stereo not given) | 86 |
| CCC#CCOc1cc2c(cc1/C=C/C=C/C(C)=C/C(=O)O)C(C)(C)CCC2(C)C | 208 to 209 |
| ON=Cc1cc(F)ccc1Cl | 133 to 134 |
| O=C(COc1ccc(NC(=O)OCCO)cc1)OCCOC(=O)COc1ccc(NC(=O)OCCO)cc1 | 158 to 161 |
| c1cnc(N2CCN(Cc3ccc4c(c3)SCO4)CC2)nc1 | 90 to 91 |
| CCC(=O)Nc1cccc(-c2ccnc3c(C(=O)c4cccs4)cnn23)c1 | 208 to 210 |
| Cc1cccc(N2CCOCC2)c1NC(N)=S | 199 |
| Nc1nc(C(=O)C(=O)O)cs1 | > 200 |
| Cn1cc(C=O)c(-c2ccoc2)n1 | 77 to 78 |
| N#CC1Cc2ccc(N)cc2C1 (stereo not given) | 73 to 76 |
| CC(C)n1cc(C(=O)NCc2ccc(Cl)cc2)c(=O)c2cc(CCCO)sc21 | 84 to 92 |

Next, values leading:

| melting point [°C] | SMILES |
| --- | --- |
| 304 to 306 | CC1=NN=C(c2ccc3ccccc3n2)c2cc3oc(=O)[nH]c3cc2C1 |
| 262 to 265 | Cc1ccc(N2C(=O)C(O)=C(C(=O)c3ccc(C(C)(C)C)cc3)C2c2ccc(OC(F)(F)F)cc2)nn1 (stereo not given) |
| 102 | O=C1CCN(C(=O)c2cc(C(F)(F)F)cc(C(F)(F)F)c2)C(Cc2ccccc2)C1 (stereo not given) |
| 210 to 211 | CCn1c(=O)c2cccnc2n(-c2cccc([N+](=O)[O-])c2)c1=O |
| 139 | COc1ccc(CCN2CCC(=C3c4ccn(C)c4CCn4ncnc43)CC2)cc1 |
| 167 to 168 | COc1cc(C)nc2c(OC)cc(Br)cc12 |
| 187 to 194 | CC(C)(CC(O)(C(=O)Nc1ccc2c(c1Br)COC2=O)C(F)(F)F)c1ccccc1 (stereo not given) |
| 174 to 177 | Cc1noc(C)c1-c1cn(Cc2ccccc2)c(=O)c2cnccc12 |
| 105 to 107 | Cc1ccccc1C(=O)Nc1ccc(-n2nc(C3CC3)cc2C2CC2)c(F)c1 |
| 68 to 70 | COc1ccc(COc2ccccc2-c2cccc(N)c2)cc1 |
| 151 to 153 | COC(=O)C1=C(C)N(C)C(C)=C(C(=O)OC)C1c1ccccc1 |
| 130 to 135 | Cn1nnc2ccc(C(c3ccc(Cl)cc3)n3cncn3)cc21 (stereo not given) |
| 252 to 253 | Nc1cc(C(=O)O)cc(S(N)(=O)=O)c1Oc1ccccc1 |
| 170 to 173 | CCOC(=O)c1ccc(C(Cc2ccncc2)c2ccc(OC)c(OC3CCCC3)c2)cc1 (stereo not given) |
| 158 to 159 | CN1CCC2(CC1=O)c1ccccc1Oc1ccccc12 |
| 97 to 97.5 | O=C(OCc1ccccc1)C1(NS(=O)(=O)c2ccc(Oc3ccc(F)cc3)cc2)CCCC1 |
| 191 to 192 | O=C(CCCO)Nc1cccc(/C=C/c2nc3ccccc3s2)c1 |
| 340 to 350 | O=C1NCc2c1c(O)nc1ccccc21 |
| 142 | O=C(NO)[C@H](CNS(=O)(=O)c1ccc(OCc2ccccc2)cc1)N1CCOCC1 |
| 75 to 80 | CCc1ccc2oc(C(=O)Nc3ccc(-c4ccc(S(=O)(=O)NC(C(=O)OC)C(C)C)cc4)cc3)c(C)c2c1O (stereo not given) |
